Laboratory results from patent publication US5672715A, “Herbicidal substituted 3-aryl-pyrazoles” (Monsanto Company, priority 1995, dated 1997).
Several values for one entry are separate records, joined by “and”; a condition that tells them apart may be missing. Equal entries are not always repeated.

Assays:
Type in all cases: in vivo
Wheat [1] = experiment: post-emergence herbicide test; details: Triticum aestivum, post-emergence, read-out: % plant inhibition; for inhibition at 40.0143 g/ha: 0.0357 lb/A; for inhibition at 200.072 g/ha: 0.1785 lb/A; for inhibition at 1000.92 g/ha: 0.893 lb/A
In short: (§1)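 Each pan is moved to a spraying chamber when plants are two to three weeks old and sprayed by atomizer at 10 psig, delivering 1870 L/Ha containing about 0.4% by volume emulsifier. Greenhouse-grown from seed; percent inhibition scored.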

Common Chickweed [2] = experiment: post-emergence herbicide test; details: post-emergence, read-out: % plant inhibition; for inhibition at 40.0143 g/ha: 0.0357 lb/A; for inhibition at 200.072 g/ha: 0.1785 lb/A; for inhibition at 1000.92 g/ha: 0.893 lb/A
In short: as §1

Velvetleaf = experiment: post-emergence herbicide test; details: Abutilon theophrasti, post-emergence, read-out: % plant inhibition; for inhibition at 40.0143 g/ha: 0.0357 lb/A; for inhibition at 200.072 g/ha: 0.1785 lb/A; for inhibition at 1000.92 g/ha: 0.893 lb/A
In short: as §1

Morning Glory = experiment: post-emergence herbicide test; details: Ipomoea, post-emergence, read-out: % plant inhibition; for inhibition at 40.0143 g/ha: 0.0357 lb/A; for inhibition at 200.072 g/ha: 0.1785 lb/A; for inhibition at 1000.92 g/ha: 0.893 lb/A
In short: as §1

Yellow Nutsedge = experiment: post-emergence herbicide test; details: Cyperus, read-out: % plant inhibition; for inhibition at 40.0143 g/ha: 0.0357 lb/A; for inhibition at 200.072 g/ha: 0.1785 lb/A; for inhibition at 1000.92 g/ha: 0.893 lb/A
In short: as §1

Yellow Foxtail = experiment: post-emergence herbicide test; details: Setaria, read-out: % plant inhibition; for inhibition at 40.0143 g/ha: 0.0357 lb/A; for inhibition at 200.072 g/ha: 0.1785 lb/A; for inhibition at 1000.92 g/ha: 0.893 lb/A
In short: as §1

Wheat [3] = experiment: pre-emergence herbicide test; details: Triticum aestivum, pre-emergence, read-out: % plant inhibition
In short: (§2)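 Known amounts of active ingredient went into the cover soil over seeds sown in pans, either before or after the layer was spread. An initial 1/4 inch overhead irrigation was given in some cases; otherwise pans were subirrigated. Rating was % inhibition at ~14 days.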

Common Chickweed [4] = experiment: pre-emergence herbicide test; details: pre-emergence, 0.0071 lb/A; read-out: % plant inhibition
In short: as §2

Bedstraw Catchweed = experiment: pre-emergence herbicide test
In short: as §2

Blackgrass = experiment: pre-emergence herbicide test
In short: as §2

Structure (SMILES)	inhibition at 40.0143 g/ha (Wheat [1]) [%]	inhibition at 200.072 g/ha (Wheat [1]) [%]	inhibition at 1000.92 g/ha (Wheat [1]) [%]	inhibition at 40.0143 g/ha (Common Chickweed [2]) [%]	inhibition at 200.072 g/ha (Common Chickweed [2]) [%]	inhibition at 1000.92 g/ha (Common Chickweed [2]) [%]	inhibition at 40.0143 g/ha (Velvetleaf) [%]	inhibition at 200.072 g/ha (Velvetleaf) [%]	inhibition at 1000.92 g/ha (Velvetleaf) [%]	inhibition at 40.0143 g/ha (Morning Glory) [%]	inhibition at 200.072 g/ha (Morning Glory) [%]	inhibition at 1000.92 g/ha (Morning Glory) [%]	inhibition at 40.0143 g/ha (Yellow Nutsedge) [%]	inhibition at 200.072 g/ha (Yellow Nutsedge) [%]	inhibition at 1000.92 g/ha (Yellow Nutsedge) [%]	inhibition at 40.0143 g/ha (Yellow Foxtail) [%]	inhibition at 200.072 g/ha (Yellow Foxtail) [%]	inhibition at 1000.92 g/ha (Yellow Foxtail) [%]	other results
Cc1c(-c2cc(O)c(Cl)cc2F)nn(C)c1C(F)(F)F [Compound 40]	0	15	20	15	50	98	55	75	100	50	70	80	70	55	0	0	0	10	inhibition at 5043.82 g/ha (Wheat [1]; 4.5 lb/A): 25%; inhibition at 5043.82 g/ha (Common Chickweed [2]; 4.5 lb/A): 98%; inhibition at 5043.82 g/ha (Velvetleaf; 4.5 lb/A): 100%; inhibition at 5043.82 g/ha (Morning Glory; 4.5 lb/A): 100%; inhibition at 5043.82 g/ha (Yellow Nutsedge; 4.5 lb/A): 0%; inhibition at 5043.82 g/ha (Yellow Foxtail; 4.5 lb/A): 100%
COc1cc(-c2nn(C)c(C(F)(F)F)c2C)c(F)cc1[N+](=O)[O-] [Compound 36]	5	20	25	15	35	65	70	75	100	40	85	100	0	0	25	10	45	70	inhibition at 7.95803 g/ha (Wheat [1]; 0.0071 lb/A): 10%; inhibition at 7.95803 g/ha (Common Chickweed [2]; 0.0071 lb/A): 85%; inhibition at 7.95803 g/ha (Velvetleaf; 0.0071 lb/A): 65%; inhibition at 7.95803 g/ha (Morning Glory; 0.0071 lb/A): 20%; inhibition at 7.95803 g/ha (Yellow Nutsedge; 0.0071 lb/A): 0%; inhibition at 7.95803 g/ha (Yellow Foxtail; 0.0071 lb/A): 0%; inhibition at 7.95803 g/ha (Wheat [3]; 0.0071 lb/A): 0%; inhibition at 40.0143 g/ha (Wheat [3]; 0.0357 lb/A): 0%; inhibition at 7.95803 g/ha (Common Chickweed [4]): 0%; % plant inhibition (Bedstraw Catchweed; 0.1785 lb/A): 80%; inhibition at 7.95803 g/ha (Bedstraw Catchweed; Galium aparine, pre-emergence, 0.0071 lb/A, read-out: % plant inhibition): 0%; inhibition at 200.072 g/ha (Bedstraw Catchweed; Galium aparine, pre-emergence, 0.1785 lb/A, read-out: % plant inhibition): 100%; inhibition at 1000.92 g/ha (Bedstraw Catchweed; Galium aparine, pre-emergence, 0.893 lb/A, read-out: % plant inhibition): 100%; % plant inhibition (Blackgrass; 0.893 lb/A): 100% and 50%; inhibition at 7.95803 g/ha (Blackgrass; Alopecurus myosuroides, pre-emergence, 0.0071 lb/A, read-out: % plant inhibition): 0%; inhibition at 40.0143 g/ha (Blackgrass; Alopecurus myosuroides, pre-emergence, 0.0357 lb/A, read-out: % plant inhibition): 0%
